The subject of assay [1] is MSSA clinical isolate No. 5. In words: MIC, broth microdilution (Example 2, Table 6). Type of assay: cell-based, Staphylococcus aureus.
Assay [2] relates to MRSA clinical isolate No. 9. In words: MIC, broth microdilution (Example 2, Table 6). It is filed as cell-based, Staphylococcus aureus.
Assay [3] relates to MRSA clinical isolate No. 10. In words: MIC, broth microdilution (Example 2, Table 6). It is filed as cell-based, Staphylococcus aureus.
The test system of assay [4] is MSSA clinical isolate No. 3. In words: MIC, broth microdilution (Example 2, Table 6). It is filed as cell-based, Staphylococcus aureus.
The test system of another assay is MSSA ATCC29213. In words: MIC, broth microdilution (Example 2, Table 6). Type of assay: cell-based, Staphylococcus aureus.
Assay [5] relates to MSSA clinical isolate No. 2. Nature of the assay: MIC, broth microdilution (Example 2, Table 6). It is filed as cell-based, Staphylococcus aureus.
Assay [6] relates to Candida tropicalis ATCC750. In words: MIC with respect to fungi, broth microdilution (Table 8). The note with it: RPMI1640/MOPS (pH 7.0), 35° C., 24 to 48 hours. Type of assay: cell-based. On the procedure: (§1) Regarding the respective type strains shown in Tables 7 and 8 below, the MIC measurement was performed using the antibacterial agent solutions of Example 2 in the same manner as described in Section (2) of Example 1, except for the following. The antibacterial agent solutions were prepared by dissolving the EGCG derivatives of Example 2 in 100% DMSO and then diluting the resultant mixtures with sterile distilled water. The respective strains were derived from ATCC or NCTC. As Moraxella catarrhalis and Aspergillus fumigatus, clinical isolates thereof without an acquired resistance mechanism were used. For nutrient-rich bacteria, namely, Streptococcus pneumoniae ATCC49619, Streptococcus pyogenes ATCC19615, Streptococcus agalactiae ATCC13813, Moraxella catarrhalis, and Haemophilis influenzae ATCC49766, Strepto Haemo supplement (Eiken Chemical Co., Ltd.) was added to media for culturing them. The MIC measurement with respect to fungi was carried out by a broth microdilution method using a RPMI1640/MOPS (pH 7.0) medium in accordance with CLSI guidelines. About 2×10^3 cells/ml of fungi were inoculated to the medium. After the culture at 35° C. for 24 to 48 hours, the MIC was determined. Also, regarding the antibacterial agent solution of Comparative Example 2, the MIC was measured in the same manner.

Assay [7] concerns Candida albicans ATCC24433. The description is as above. It is filed as cell-based. The note with it: RPMI1640/MOPS (pH 7.0), 35° C., 24 to 48 hours. On the procedure:
as §1

For assay [8], the system named is Candida parapsilosis ATCC22019. Described as above. Type of assay: cell-based. The note with it: RPMI1640/MOPS (pH 7.0), 35° C., 24 to 48 hours. On the procedure: as §1
The test system of assay [9] is Cryptococcus neoformans ATCC90112. The assay is described as above. It is filed as cell-based. The note with it: RPMI1640/MOPS (pH 7.0), 35° C., 24 to 48 hours. On the procedure:
as §1

Another assay deals with Candida krusei ATCC6258. The description is as above. Type of assay: cell-based. The note with it: RPMI1640/MOPS (pH 7.0), 35° C., 24 to 48 hours. Here is the method: as §1
For another assay, the system named is Aspergillus fumigatus. Described as above. It is filed as cell-based. The note with it: Aspergillus fumigatus clinical isolate; RPMI1640/MOPS (pH 7.0), 35° C., 24 to 48 hours. On the procedure: as §1
For assay [10], the system named is Enterococcus faecalis ATCC29212. In words: Antibacterial spectrum MIC (Table 7). Type of assay: cell-based. On the procedure: (§2) Methicillin-susceptible Staphylococcus aureus (MSSA) NCTC8325 and methicillin-resistant Staphylococcus aureus (MRSA) ATCC43300 were used as bacteria. The bacteria of each type were cultured using Mueller-Hinton Broth (MH-broth, Difco) as a medium. Then, the minimum inhibitory concentration (MIC) of each of the EGCG derivatives was measured by a broth microdilution method in accordance with the Clinical and Laboratory Standards Institute (CLSI) guidelines (hereinafter the same).
(§3) First, each of the EGCG derivatives was dissolved in 100% dimethyl sulfoxide (DMSO, Wako Pure Chemical Industries, Ltd.) so that the concentration thereof became 5120 μg/ml. The resultant solution was diluted with DMSO or sterile distilled water so as to prepare two-fold dilution series of antibacterial agent solutions. […] Each of these antibacterial agent solutions was dispensed to wells of a 96-well plate. The concentration of the EGCG derivative in the antibacterial agent solution dispensed to the wells was set to be 10 times as high as the final concentration. On the other hand, the bacteria were cultured in the MH-broth at 37° C. overnight, and the thus-obtained pre-culture solution was diluted with a new MH-broth so that the concentration thereof in the MH-broth became 10^−4 (10^4-fold dilution), thus preparing a bacterial culture solution of about 1×10^5 CFU/ml (CFU: Colony Forming Unit, the number of viable cells). The bacterial culture solution was further added to each well, and the mixture was cultured at 37° C. for 18 hours. The ratio (volume ratio) between the antibacterial agent solution and the bacterial culture solution added to each well was set to 1:9 (the antibacterial agent solution:the bacterial culture solution), and the volume of the mixture of them per well was set to 100 μl in total. The final concentration of the EGCG derivative in the mixture was set to 8 μg/ml to 512 μg/ml, and the number of viable cells in the mixture was set to about 1×10^5 CFU/ml. Then, after the completion of the culture, the MIC was determined. Also, the turbidity (OD600 nm) was measured using a plate reader so as to identify minor differences.
as §1

For assay [11], the system named is Yersinia enterocolitica ATCC9610. Nature of the assay: Antibacterial spectrum MIC (Table 7). Type of assay: cell-based. Here is the method:
as §2, §3, §1

Assay [12] has as its system Enterobacter cloacae ATCC13047. Nature of the assay: Antibacterial spectrum MIC (Table 7). It is filed as cell-based. On the procedure: as §2, §3, §1
Assay [13] has as its system Staphylococcus aureus NCTC8325. In words: Antibacterial spectrum MIC (Table 7). Type of assay: cell-based. On the procedure: as §2, §3, §1
The subject of assay [14] is Staphylococcus aureus ATCC43300 (MRSA). Nature of the assay: Antibacterial spectrum MIC (Table 7). Type of assay: cell-based. Here is the method:
as §2, §3, §1

Assay [15] has as its system Escherichia coli ATCC25922. Nature of the assay: Antibacterial spectrum MIC (Table 7). It is filed as cell-based. On the procedure: as §2, §3, §1
For the next assay, the system named is Neisseria meningitidis. Nature of the assay: Antibacterial spectrum MIC (Table 7). It is filed as cell-based. On the procedure: as §2, §3, §1
The test system of assay [16] is Haemophilis influenzae ATCC49766. Nature of the assay: Antibacterial spectrum MIC (Table 7). It is filed as cell-based. The note with it: Strepto Haemo supplement. On the procedure:
as §2, §3, §1

The subject of another assay is MSSA ATCC12600. Nature of the assay: MIC, broth microdilution (Example 2, Table 6). It is filed as cell-based, Staphylococcus aureus.
The subject of assay [17] is Candida glabrata ATCC90030. Nature of the assay: MIC with respect to fungi, broth microdilution (Table 8). It is filed as cell-based. The note with it: RPMI1640/MOPS (pH 7.0), 35° C., 24 to 48 hours. On the procedure:
as §1

Assay [18] deals with Methicillin-susceptible Staphylococcus aureus (MSSA) NCTC8325. In words: MIC, broth microdilution (Example 1). It is filed as cell-based. The note with it: MH-broth, 37° C., 18 hours. On the procedure:
as §2, §3
As Comparative Example 1, the same procedures as in Example 1 were performed, except that unsubstituted EGCG was used as an antibacterial agent instead of the EGCG derivatives of Example 1. Furthermore, as a control, the same procedures as in Example 1 were performed, except that sterile distilled water, 100% DMSO, or 50% DMSO was used instead of the antibacterial agent solutions containing the EGCG derivatives.

A value given as a limit tells only on which side of the number the result lay.

Turning to EGCG-α-linoleate [EGCG-C18TE], the MIC was 16 µg/mL in [1]; 64 µg/mL in [2]; 16 µg/mL in [3]; 16 µg/mL in [4]; 16 µg/mL in the assay on MSSA ATCC29213; 16 µg/mL in assay [5]. Further, the MIC in assay [6] was found to be 16 µg/mL; in assay [7], 16 µg/mL; in assay [8], 16 µg/mL; in assay [9], 8 µg/mL; with Candida krusei ATCC6258 it was 16 µg/mL; in the assay with Aspergillus fumigatus it was 16 µg/mL. The MIC was 64 µg/mL in [10]; 32 µg/mL in assay [11]; 64 µg/mL in [12]; 16 µg/mL in [13]; 64 µg/mL in assay [14]; 64 µg/mL in assay [15]. The MIC (against Neisseria meningitidis; in assay [16]; in the assay with MSSA ATCC12600) was 16 µg/mL in each case.

As to EGCG-dioctanoate [EGCG-C8×2], the MIC (in [1]; in assay [2]; in [3]; in assay [4]; in the assay with MSSA ATCC29213; in assay [5]) was 16 µg/mL throughout. Moreover, the MIC came out at 32 µg/mL in [6]; 32 µg/mL in [7]; 16 µg/mL in assay [17]; 16 µg/mL in assay [8]; 16 µg/mL in assay [9]; 16 µg/mL with Candida krusei ATCC6258. Also, the MIC stood at 32 µg/mL with Aspergillus fumigatus; 64 µg/mL in assay [10]; 32 µg/mL in assay [11]; 64 µg/mL in [12]; 16 µg/mL in [13]; 64 µg/mL in assay [14]. Moreover, the MIC in assay [15] worked out at 64 µg/mL; against Neisseria meningitidis, 16 µg/mL; in assay [16], 16 µg/mL; in the assay on MSSA ATCC12600 it was 8 µg/mL.

Take EGCG-oleate [EGCG-C18E]: the MIC in [1] came to 32 µg/mL; in [2], 64 µg/mL; in [3] it was 16 µg/mL; in [4] it was 32 µg/mL; against MSSA ATCC29213, 32 µg/mL; in assay [5] it was 32 µg/mL. Also, the MIC came to 32 µg/mL in [6]; 16 µg/mL in [7]; 16 µg/mL in assay [17]; 16 µg/mL in assay [8]; 16 µg/mL in [9]; 16 µg/mL in the assay with Candida krusei ATCC6258. The MIC with Aspergillus fumigatus was 32 µg/mL; in [10], >64 µg/mL; in assay [11], 32 µg/mL; in [12], 64 µg/mL; in [13] it was 32 µg/mL; in assay [14], 64 µg/mL. Also, the MIC in assay [15] was determined as 64 µg/mL; in the assay with Neisseria meningitidis it was 16 µg/mL; in [16], 16 µg/mL; against MSSA ATCC12600, 32 µg/mL.

Regarding EGCG-palmitoleate [EGCG-C16E], the MIC in assay [1] came out at 16 µg/mL; in assay [2], 64 µg/mL; in [3] it was 16 µg/mL; in [4] it was 16 µg/mL; in the assay with MSSA ATCC29213, 16 µg/mL; in assay [5], 16 µg/mL. For the same substance, the MIC turned out to be 16 µg/mL in assay [6]; 16 µg/mL in assay [7]; 16 µg/mL in assay [17]; 16 µg/mL in [8]; 8 µg/mL in assay [9]; 16 µg/mL in the assay with Candida krusei ATCC6258. The MIC with Aspergillus fumigatus worked out at 16 µg/mL; in assay [10], 64 µg/mL; in assay [11], 32 µg/mL; in assay [12], 64 µg/mL; in assay [13], 16 µg/mL; in assay [14], 64 µg/mL. Moreover, the MIC in assay [15] was 64 µg/mL; in the assay on Neisseria meningitidis, 16 µg/mL; in assay [16], 16 µg/mL; against MSSA ATCC12600 it was 16 µg/mL.

Take EGCG-linolate [EGCG-C18DE]: the MIC in assay [1] was 16 µg/mL; in [2], 64 µg/mL; in assay [3] it was 16 µg/mL; in assay [4], 16 µg/mL; with MSSA ATCC29213, 16 µg/mL; in [5] it was 16 µg/mL. The MIC in [6] was found to be 32 µg/mL; in [7] it was 16 µg/mL; in [8], 16 µg/mL; in assay [9] it was 8 µg/mL; against Candida krusei ATCC6258, 16 µg/mL; in the assay with Aspergillus fumigatus it was 32 µg/mL. Also, the MIC in assay [10] was 64 µg/mL; in assay [11], 32 µg/mL; in assay [12], 64 µg/mL; in assay [13] it was 16 µg/mL; in [14], 64 µg/mL; in assay [15] it was 64 µg/mL. Further, the MIC (against Neisseria meningitidis; in assay [16]; with MSSA ATCC12600) was 16 µg/mL each time.

Take EGCG-stearate [EGCG-C18]: the MIC in [1] came out at 32 µg/mL; in assay [3] it was 32 µg/mL; in [4], 32 µg/mL; with MSSA ATCC29213, 32 µg/mL; in [5] it was 32 µg/mL; in assay [18], 16 µg/mL. For the same substance, the MIC in assay [6] came out at 32 µg/mL; in assay [7], 16 µg/mL; in [17], 16 µg/mL; in assay [8], 16 µg/mL; in [9] it was 16 µg/mL; in the assay on Candida krusei ATCC6258 it was 16 µg/mL. Also, the MIC with Aspergillus fumigatus was determined as 32 µg/mL; in assay [10] it was 32 µg/mL; in assay [11] it was 32 µg/mL; in [12] it was 64 µg/mL; in assay [13], 32 µg/mL; in assay [14], 32 µg/mL. Also, the MIC in assay [15] was found to be 64 µg/mL; with Neisseria meningitidis it was 16 µg/mL; against MSSA ATCC12600, 32 µg/mL.

These data come from patent US9801850B2, “Antibacterial agent” (OSAKA UNIVERSITY, priority 2009, dated 2017).
